According to patent US9309199B2, “Inhibitors of catechol O-methyl transferase and their use in the treatment of psychotic disorders” (Merck Sharp & Dohme Corp., priority 2010, dated 2016):

Biological target: T1, MB-COMT (Homo sapiens, UniProt P21964)
T1 construct: 6xHis or 10xHis (C)
T1 sequence (P21964 1-271): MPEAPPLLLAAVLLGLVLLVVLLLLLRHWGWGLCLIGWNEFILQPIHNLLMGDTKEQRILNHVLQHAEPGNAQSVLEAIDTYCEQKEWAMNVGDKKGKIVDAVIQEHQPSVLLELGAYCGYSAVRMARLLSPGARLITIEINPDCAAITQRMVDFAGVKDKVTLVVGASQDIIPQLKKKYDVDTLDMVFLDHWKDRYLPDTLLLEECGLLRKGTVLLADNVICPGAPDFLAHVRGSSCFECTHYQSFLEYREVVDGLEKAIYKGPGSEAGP
Assay: COMT inhibition, esculetin fluorescence or fluorescence polarization assay (MB-COMT)
Type: biochemical
Conditions: purified human COMT Val158 variant, membrane-bound
Source text: The activity of the compounds in accordance with the present invention as COMT inhibitors may be readily determined without undue experimentation using a fluorescence or fluorescence polarization (FP) methodology that is well known in the art (Kurkela M et al., Anal Biochem (331) 2004, 198-200 and Graves, T L et al., Anal Biochem (373) 2008, 296-306).
The fluorescence assay was based on methylation of a substrate (6,7-dihydroxycoumarin or ‘esculetin’) by COMT to produce a highly fluorescent product (7-hydroxy-6-methoxycoumarin or scopoletin'). […] A 10 mM compound stock in DMSO was used to prepare 10 point 3-fold dilution series and 1 uL of appropriate dilution was plated into assay wells (black 96 well round bottom polystyrene plates from Costar; catalog #3792). […] The formation of product (scopoletin) was monitored over time by fluorescence (excitation 340 nm, emission 460 nm, no lag, 100 μs integration time, 5 flashes, top read) using a Tecan Safire^2 plate reader.

IC50 [nM]	SMILES
179	Cn1cc(-c2ccc3ccccc3c2)cc(O)c1=O [Compound #1, 3-hydroxy-1-methyl-5-naphthalen-2-ylpyridin-2(1H)-one]
31	O=c1[nH]cc(-c2ccc(Cl)c(C(F)(F)F)c2)cc1O [Compound #2, 5-[4-chloro-3-(trifluoromethyl)-phenyl]-3-hydroxypyridin-2(1H)-one]
197	N#Cc1cccc(-c2c[nH]c(=O)c(O)c2)c1 [Compound #8, 3-(5-hydroxy-6-oxo-1,6-dihydropyridin-3-yl)benzonitrile]
392	Cn1cc(-c2ccc(Cl)cc2Cl)cc(O)c1=O [Example 1, 5-(2,4-Dichloro-phenyl)-3-hydroxy-1-methyl-1H-pyridin-2-one]
118	Cn1cc(-c2cccc(-c3ccccc3)c2)cc(O)c1=O [Example 4, 5-Biphenyl-3-yl-3-hydroxy-1-methylpyridin-2(1H)-one]
